Results from patent US20020001841A1, “CONTINUOUS T-CELL LINES” (priority 1998, published 2002).
“And” between values parts separate entries of the source, which are not always exact repeats. Identical values can stand only once.

Columns and labels:
[1] = test system: gut T-cell cultures from patients with Crohn's disease; type: cell-based, human
transmembrane TNFα = conditions: murine SP2/O myeloma cells with cleavage resistant transmembrane TNFα; Scatchard analyses; cited from earlier work
[2] = test system: gut T-cell cultures from patients with Crohn's disease; type: cell-based, human; remark: listed apart in the source
[3] = test system: activated gut T-lymphocytes in Crohn's disease; type: cell-based, human

Sequence of transmembrane TNFα (P01375 88-233 limits assumed): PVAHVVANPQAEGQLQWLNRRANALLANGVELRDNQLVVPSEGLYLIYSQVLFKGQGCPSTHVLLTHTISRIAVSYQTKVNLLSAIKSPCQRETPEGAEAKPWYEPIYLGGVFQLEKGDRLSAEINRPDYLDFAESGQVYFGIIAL

Infliximab: chimeric TNFα antibody with high avidity for transmembrane TNFα, obtained from Centocor
Amount of propidium iodide and Annexin-FITC positive cells compared with SEA alone [1]: did not increase
Apoptosis (in words) [1]: did not induce any apoptosis
Infliximab molecules bound per cell (transmembrane TNFα): about 35000 molecules per cell
Proliferation rate (in words) [2]: did not change the proliferation rate
24 hour production of IFNγ (in words) [3]: reduction
Production of IFNγ and TNFα (in words) [3]: reduced
Reduction of IFNγ production by Infliximab [3]: 68% and 43% and 49% and 56%
Reduction of TNFα production by Infliximab [3]: 97%
